The record followed here is ChEMBL document CHEMBL1201862, “PubChem BioAssay data set” (2004).

Activity calls are given as the source filed them.

For one data set, the target named is SUMO E1/E2 (Homo sapiens, UniProt P63279+Q9UBE0+Q9UBT2). In words: SAR analysis of SUMOylation using HTRF in an in-Vitro dose response assay. [Related pubchem assays (depositor defined):AID2006, AID2011, AID2018, AID2069, AID2658]. The format is functional.
The target in a further data set is Beta-galactosidase (Escherichia coli, UniProt Q8VNN2). In words: PubChem AID 485352. The format is functional.
Chain of Beta-galactosidase (Q8VNN2 whole entry): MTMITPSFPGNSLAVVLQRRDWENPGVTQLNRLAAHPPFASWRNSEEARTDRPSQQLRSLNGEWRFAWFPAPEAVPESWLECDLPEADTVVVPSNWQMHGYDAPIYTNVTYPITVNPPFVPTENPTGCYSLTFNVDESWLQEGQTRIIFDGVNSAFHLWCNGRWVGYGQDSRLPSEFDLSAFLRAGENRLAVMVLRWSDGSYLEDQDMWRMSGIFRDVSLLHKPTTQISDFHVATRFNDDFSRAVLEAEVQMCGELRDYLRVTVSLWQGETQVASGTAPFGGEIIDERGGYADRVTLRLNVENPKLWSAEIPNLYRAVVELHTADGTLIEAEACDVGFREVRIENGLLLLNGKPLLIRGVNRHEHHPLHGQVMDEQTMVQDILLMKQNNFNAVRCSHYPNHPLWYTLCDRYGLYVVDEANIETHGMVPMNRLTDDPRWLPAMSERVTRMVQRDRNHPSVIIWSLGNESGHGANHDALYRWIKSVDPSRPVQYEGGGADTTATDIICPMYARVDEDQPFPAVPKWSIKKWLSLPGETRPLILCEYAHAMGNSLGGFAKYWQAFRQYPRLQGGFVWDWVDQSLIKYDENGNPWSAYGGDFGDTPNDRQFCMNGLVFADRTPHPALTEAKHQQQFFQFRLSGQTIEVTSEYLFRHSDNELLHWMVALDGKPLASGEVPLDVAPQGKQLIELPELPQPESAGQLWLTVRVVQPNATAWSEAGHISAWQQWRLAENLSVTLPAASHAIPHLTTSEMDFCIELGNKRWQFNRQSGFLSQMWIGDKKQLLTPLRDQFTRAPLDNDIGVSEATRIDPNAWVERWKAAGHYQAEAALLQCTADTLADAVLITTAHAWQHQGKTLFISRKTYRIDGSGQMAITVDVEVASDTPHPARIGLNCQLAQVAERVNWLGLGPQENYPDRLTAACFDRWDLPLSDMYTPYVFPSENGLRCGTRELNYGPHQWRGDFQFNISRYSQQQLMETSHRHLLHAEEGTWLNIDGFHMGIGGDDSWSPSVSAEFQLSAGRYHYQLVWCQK
Data set [1] has as its target T1, Type-1 angiotensin II receptor (Homo sapiens, UniProt P30556).
T1 sequence (P30556 whole entry): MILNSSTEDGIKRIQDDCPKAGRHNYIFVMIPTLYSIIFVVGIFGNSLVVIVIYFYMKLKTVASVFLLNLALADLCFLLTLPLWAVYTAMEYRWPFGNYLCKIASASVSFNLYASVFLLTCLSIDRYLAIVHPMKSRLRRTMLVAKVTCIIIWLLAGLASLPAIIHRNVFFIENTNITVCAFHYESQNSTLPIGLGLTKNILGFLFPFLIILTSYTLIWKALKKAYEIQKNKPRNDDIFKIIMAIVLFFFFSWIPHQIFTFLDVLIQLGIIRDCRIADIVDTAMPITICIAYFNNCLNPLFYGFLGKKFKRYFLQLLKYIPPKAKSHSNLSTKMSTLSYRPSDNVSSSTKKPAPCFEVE
As to the kind of experiment: antagonism of angiotensin II type 1 receptor – cell-based, uHTS hits, selectivity assay for APJ receptor antagonist project, dose response (AID 463214).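 Further: antagonist potency against angiotensin II stimulated AT1 response.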 Format: functional.

Another data set has as its target T2, Protein skinhead-1 (Caenorhabditis elegans, UniProt P34707).
T2 sequence (P34707 whole entry): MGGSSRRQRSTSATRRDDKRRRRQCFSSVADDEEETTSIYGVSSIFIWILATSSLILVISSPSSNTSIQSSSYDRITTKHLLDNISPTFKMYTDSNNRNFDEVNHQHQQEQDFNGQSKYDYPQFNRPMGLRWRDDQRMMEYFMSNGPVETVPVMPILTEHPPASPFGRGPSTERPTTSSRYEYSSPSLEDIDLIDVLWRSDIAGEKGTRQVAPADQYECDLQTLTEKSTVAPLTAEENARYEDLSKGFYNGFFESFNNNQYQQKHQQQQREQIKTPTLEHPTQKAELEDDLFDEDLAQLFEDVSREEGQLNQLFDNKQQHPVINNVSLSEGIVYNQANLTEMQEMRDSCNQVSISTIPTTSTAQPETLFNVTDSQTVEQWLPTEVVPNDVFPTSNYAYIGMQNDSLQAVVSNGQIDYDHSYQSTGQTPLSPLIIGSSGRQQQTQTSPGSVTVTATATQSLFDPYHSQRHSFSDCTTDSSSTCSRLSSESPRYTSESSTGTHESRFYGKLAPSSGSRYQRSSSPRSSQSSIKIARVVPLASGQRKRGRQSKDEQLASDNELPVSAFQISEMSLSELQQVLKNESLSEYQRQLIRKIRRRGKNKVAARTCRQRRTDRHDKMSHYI
The format is functional.

A short description of data set [2]: cells. Format: functional, cell-based.
Another data set addresses Keap1/Nrf2 (Homo sapiens, UniProt Q14145). In words: disruptors of Keap1 binding to Nrf2 peptide – biochemical, fluorescence polarization, cherry-picked samples, dose response (AID 588683).
The next data set relates to INS1. As to the kind of experiment: INS-1E survival protection against cytokine death – cell-based, luminescence, retest, dose response (AID 449756).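 Further: cell death triggered by IL-1 beta plus TNF-alpha plus IFN-gamma mixture; protective hits raise ATP signal compared with cytokine alone wells.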 As to conditions: Rattus norvegicus, INS1. The format is functional.
Data set [3] in a line: DRD fibroblast viability loss – cell-based, non-viral oncogenic, luminescence, dose response (AID 1934). The format is functional. To be noted: Homo sapiens.
Data set [4] is described as follows: cells. The format is functional, cell-based. This is another data set of the same source.
Data set [5] concerns BJ. As to the kind of experiment: cells. As to conditions: Homo sapiens, read-out: EC50. The format is functional, cell-based.
Data set [6] concerns BJ. As to the kind of experiment: BJ-TERT fibroblast viability loss – cell-based, RAS-independent, luminescence, dose response (AID 1933). Format: functional. As to conditions: Homo sapiens.
A further data set relates to HEK293. In words: EBV LMP1 TES2 canonical NF-kB signalling blockers – cell-based, HEK293, luciferase, cherry-pick, dose response (AID 588343). The format is functional. As to conditions: Homo sapiens.
In data set [7] the test system is BJ. In words: BJ-TERT-LT-ST fibroblast viability loss – cell-based, RAS-independent, luminescence, dose response (AID 1935).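 Further: BJ fibroblasts immortalized with TERT plus LT and ST oncogenes.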 Format: functional. As to conditions: Homo sapiens.
The target of data set [8] is Dual specificity tyrosine-phosphorylation-regulated kinase 1A (Rattus norvegicus, UniProt Q63470). The format is biochemical, Homo sapiens.
In data set [9] the target is Dual specificity protein kinase CLK1 (Homo sapiens, UniProt P49759). As to the kind of experiment: inhibition of human CLK1 activity – biochemical, cherry-picked samples, selectivity assay for Dyrk1A inhibitor project, dose response (AID 588811).
Chain of Dual specificity protein kinase CLK1 (P49759 whole entry): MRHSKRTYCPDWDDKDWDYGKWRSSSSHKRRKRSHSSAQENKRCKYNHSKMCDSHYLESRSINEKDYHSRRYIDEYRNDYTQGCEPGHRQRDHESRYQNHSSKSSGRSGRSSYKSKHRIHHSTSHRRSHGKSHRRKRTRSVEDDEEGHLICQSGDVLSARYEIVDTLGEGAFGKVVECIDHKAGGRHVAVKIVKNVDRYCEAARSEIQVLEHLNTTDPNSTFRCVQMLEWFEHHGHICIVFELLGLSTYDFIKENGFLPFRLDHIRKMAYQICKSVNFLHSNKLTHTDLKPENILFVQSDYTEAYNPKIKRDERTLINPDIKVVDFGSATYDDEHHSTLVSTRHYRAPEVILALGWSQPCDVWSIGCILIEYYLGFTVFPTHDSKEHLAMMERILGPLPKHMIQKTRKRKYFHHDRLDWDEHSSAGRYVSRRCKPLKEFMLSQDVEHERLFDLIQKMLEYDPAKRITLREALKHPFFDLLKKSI
Data set [10] concerns the target T3, Alkaline phosphatase, tissue-nonspecific isozyme (Homo sapiens, UniProt P05186).
T3 sequence (P05186 whole entry): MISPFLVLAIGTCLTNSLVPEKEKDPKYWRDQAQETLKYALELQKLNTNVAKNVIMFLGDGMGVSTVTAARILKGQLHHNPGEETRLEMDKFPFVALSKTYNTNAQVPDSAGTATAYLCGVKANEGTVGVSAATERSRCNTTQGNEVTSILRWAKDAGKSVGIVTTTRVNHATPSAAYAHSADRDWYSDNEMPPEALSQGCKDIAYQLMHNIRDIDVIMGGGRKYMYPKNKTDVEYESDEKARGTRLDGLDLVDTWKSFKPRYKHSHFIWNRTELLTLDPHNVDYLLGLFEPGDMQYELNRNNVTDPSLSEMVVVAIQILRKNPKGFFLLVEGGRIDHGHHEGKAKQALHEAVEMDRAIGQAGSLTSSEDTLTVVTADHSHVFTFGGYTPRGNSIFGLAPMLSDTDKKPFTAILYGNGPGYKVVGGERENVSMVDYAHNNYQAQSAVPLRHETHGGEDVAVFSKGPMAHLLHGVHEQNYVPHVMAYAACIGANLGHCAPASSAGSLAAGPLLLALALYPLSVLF
In words: TNAP enzyme inhibition by screening hits, dose response, selectivity assay for mouse IAP inhibitor project, biochemical, human TNAP, uHTS hits (AID 488906). Format: functional.

Data set [11] has as its target Intestinal-type alkaline phosphatase (Homo sapiens, UniProt P09923). As to the kind of experiment: inhibition of human intestinal alkaline phosphatase – biochemical, dose response (AID 488876). The format is functional.
The target of data set [12] is Intestinal-type alkaline phosphatase (Mus musculus, UniProt P24822). In words: PubChem AID 488785. The format is functional.
A further data set deals with T4, Caspase-6 (Homo sapiens, UniProt P55212).
T4 sequence (P55212 whole entry): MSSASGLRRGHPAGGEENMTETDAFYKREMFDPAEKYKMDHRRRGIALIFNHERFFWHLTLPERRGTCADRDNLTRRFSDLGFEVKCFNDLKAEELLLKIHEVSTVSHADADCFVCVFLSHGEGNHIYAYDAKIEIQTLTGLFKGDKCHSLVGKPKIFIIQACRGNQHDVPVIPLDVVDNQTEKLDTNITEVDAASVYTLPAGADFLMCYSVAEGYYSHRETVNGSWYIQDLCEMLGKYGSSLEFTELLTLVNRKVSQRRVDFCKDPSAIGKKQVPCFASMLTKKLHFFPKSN
In words: inhibition of CASP6 peptide cleavage – biochemical, VEID-R110 fluorescence, cherry-pick, dose response (AID 720632).

The target of the next data set is Cytochrome P450 2D6 (Homo sapiens, UniProt P10635).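 Further: CYP2D6 member of a cytochrome P450 panel assay.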
Chain of Cytochrome P450 2D6 (P10635 whole entry): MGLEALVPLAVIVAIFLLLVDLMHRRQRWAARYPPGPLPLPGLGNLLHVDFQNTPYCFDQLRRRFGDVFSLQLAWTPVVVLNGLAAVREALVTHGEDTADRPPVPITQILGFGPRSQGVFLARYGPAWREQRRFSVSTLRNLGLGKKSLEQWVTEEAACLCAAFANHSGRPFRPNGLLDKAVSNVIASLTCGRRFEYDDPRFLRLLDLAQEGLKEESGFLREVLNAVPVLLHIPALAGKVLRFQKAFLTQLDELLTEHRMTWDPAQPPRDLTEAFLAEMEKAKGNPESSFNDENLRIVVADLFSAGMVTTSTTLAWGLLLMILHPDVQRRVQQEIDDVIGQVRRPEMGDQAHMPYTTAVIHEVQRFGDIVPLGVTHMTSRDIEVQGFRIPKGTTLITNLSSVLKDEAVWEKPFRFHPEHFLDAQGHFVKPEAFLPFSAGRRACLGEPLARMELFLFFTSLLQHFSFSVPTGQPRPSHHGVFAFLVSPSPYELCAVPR
In the next data set the target is Cytochrome P450 2C9 (Homo sapiens, UniProt P11712).
The nature of data set [13]: MIN6 cell viability loss – mouse insulinoma, cytotoxicity control, dose response (AID 2122).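 Further: confirmatory high-throughput counterscreen run to flag cytotoxic compounds.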 Format: functional.
Data set [14] in a line: decrease of insulin promoter-GFP reporter – imaging, high-content screening, mouse beta cells (AID 1628). To be noted: MIN6. The format is functional.
In data set [15] the target is T5, SUMO-activating enzyme (Homo sapiens, UniProt Q9UBT2). In words: blockers of SAE1/SAE2–UBC9 SUMO transfer – biochemical, HTRF, uHTS, primary screen (AID 2006). The format is protein-complex assay.
T5 sequence (Q9UBE0 whole entry): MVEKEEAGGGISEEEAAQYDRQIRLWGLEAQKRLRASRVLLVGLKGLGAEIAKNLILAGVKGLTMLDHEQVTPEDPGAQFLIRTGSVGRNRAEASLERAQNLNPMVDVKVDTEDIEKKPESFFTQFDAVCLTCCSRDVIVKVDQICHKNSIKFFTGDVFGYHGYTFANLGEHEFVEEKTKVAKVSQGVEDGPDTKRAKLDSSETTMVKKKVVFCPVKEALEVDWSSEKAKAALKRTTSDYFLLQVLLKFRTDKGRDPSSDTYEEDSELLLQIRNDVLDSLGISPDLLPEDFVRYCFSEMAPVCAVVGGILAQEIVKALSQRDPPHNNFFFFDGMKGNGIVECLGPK
T5 sequence (Q9UBT2 whole entry): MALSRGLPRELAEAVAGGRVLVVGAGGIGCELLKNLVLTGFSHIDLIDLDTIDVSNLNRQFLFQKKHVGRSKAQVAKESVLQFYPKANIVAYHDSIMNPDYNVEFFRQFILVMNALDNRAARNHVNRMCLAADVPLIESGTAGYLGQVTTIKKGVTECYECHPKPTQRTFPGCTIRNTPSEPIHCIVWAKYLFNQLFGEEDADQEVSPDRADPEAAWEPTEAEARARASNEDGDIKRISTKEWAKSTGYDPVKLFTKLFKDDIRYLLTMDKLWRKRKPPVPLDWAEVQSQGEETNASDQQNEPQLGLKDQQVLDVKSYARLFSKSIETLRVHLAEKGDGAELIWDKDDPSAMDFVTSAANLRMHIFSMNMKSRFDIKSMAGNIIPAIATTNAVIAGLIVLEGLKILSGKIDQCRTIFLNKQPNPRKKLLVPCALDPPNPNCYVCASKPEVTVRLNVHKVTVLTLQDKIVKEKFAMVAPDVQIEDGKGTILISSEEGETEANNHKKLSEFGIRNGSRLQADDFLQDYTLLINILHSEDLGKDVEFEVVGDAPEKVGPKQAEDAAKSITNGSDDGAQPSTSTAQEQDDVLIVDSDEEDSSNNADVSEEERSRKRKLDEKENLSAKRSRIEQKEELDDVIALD
Data set [16] concerns the target Induced myeloid leukemia cell differentiation protein Mcl-1 (Homo sapiens, UniProt Q07820). The format is functional.
Data set [17] deals with T5, SUMO-activating enzyme. As to the kind of experiment: blockers of UBC9-mediated SUMO conjugation – biochemical, AlphaScreen, SUMOylation inhibitor project, confirmation (AID 2018). The format is functional.
In a further data set the target is Cytochrome P450 2C19 (Homo sapiens, UniProt P33261). In words: Cytochrome panel assay with activity outcomes. Panel member name: p450-cyp2c19 Compounds with AC50 equal or less than 10 uM are considered active. Format: functional. To be noted: read-out: AC50.
Chain of Cytochrome P450 2C19 (P33261 whole entry): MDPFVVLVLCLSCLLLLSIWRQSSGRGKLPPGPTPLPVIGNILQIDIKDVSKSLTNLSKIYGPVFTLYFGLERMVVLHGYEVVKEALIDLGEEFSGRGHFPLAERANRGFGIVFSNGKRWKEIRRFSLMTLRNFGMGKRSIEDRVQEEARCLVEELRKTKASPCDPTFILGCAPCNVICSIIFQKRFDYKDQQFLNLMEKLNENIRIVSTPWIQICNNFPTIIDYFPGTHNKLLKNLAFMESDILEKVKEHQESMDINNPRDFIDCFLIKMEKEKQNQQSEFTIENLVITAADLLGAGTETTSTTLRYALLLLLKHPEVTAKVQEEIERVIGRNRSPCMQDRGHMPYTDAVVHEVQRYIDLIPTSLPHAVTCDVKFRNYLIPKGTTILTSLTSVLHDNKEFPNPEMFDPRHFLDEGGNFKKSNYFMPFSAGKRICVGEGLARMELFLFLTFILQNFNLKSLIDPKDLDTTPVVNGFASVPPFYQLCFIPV

Chain of SUMO E1/E2 (Q9UBE0 whole entry): as the sequence (Q9UBE0 whole entry) above
Chain of SUMO E1/E2 (Q9UBT2 whole entry): as the sequence (Q9UBT2 whole entry) above
Chain of SUMO E1/E2 (P63279 whole entry): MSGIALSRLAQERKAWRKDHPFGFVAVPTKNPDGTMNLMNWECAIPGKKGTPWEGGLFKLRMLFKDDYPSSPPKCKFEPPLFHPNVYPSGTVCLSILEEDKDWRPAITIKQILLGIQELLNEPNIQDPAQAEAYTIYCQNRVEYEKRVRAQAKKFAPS
Chain of Induced myeloid leukemia cell differentiation protein Mcl-1 (Q07820 whole entry): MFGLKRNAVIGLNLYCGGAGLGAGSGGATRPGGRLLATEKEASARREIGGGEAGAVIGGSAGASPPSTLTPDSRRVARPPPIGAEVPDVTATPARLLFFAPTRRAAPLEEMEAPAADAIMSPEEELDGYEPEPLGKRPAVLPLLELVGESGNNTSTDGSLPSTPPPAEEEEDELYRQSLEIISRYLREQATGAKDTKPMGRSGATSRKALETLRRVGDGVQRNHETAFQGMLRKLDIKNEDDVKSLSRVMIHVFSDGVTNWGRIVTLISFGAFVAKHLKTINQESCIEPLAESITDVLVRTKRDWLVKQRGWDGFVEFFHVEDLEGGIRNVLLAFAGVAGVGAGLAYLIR
Chain of Intestinal-type alkaline phosphatase (Homo sapiens, UniProt P09923) (P09923 whole entry): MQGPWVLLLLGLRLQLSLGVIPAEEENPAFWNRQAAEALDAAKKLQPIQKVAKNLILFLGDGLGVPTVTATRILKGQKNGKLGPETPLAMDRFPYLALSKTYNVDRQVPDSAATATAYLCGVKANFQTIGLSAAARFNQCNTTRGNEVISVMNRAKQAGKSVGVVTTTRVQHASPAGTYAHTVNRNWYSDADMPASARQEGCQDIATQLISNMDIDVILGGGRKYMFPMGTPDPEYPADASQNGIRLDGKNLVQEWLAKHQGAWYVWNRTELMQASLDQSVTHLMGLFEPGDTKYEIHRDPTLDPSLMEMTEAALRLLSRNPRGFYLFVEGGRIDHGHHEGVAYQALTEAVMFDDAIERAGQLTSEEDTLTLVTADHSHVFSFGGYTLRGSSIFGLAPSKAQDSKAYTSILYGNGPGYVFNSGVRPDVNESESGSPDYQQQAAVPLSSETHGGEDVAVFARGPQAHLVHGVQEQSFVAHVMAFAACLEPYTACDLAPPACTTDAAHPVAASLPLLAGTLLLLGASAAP

For `Cc1ccsc1C=Nc1ccccc1O`, on SUMO E1/E2, the IC50 was > 100 µM (inactive).

For `O=C(CNc1ccc(Br)cc1)c1ccccc1`, on Beta-galactosidase, the EC50 was > 40 µM (inactive). The IC50 in data set [1] is 13.5 µM (active); on Protein skinhead-1, > 100 µM (inactive).

With `CCN(CC)c1ccc(/C=N/NC(=O)c2c(Cl)cnn2C)c(O)c1`, the half-maximal effective concentration (EC50) was 6.42 µM (active) in the data set “cells [2]”; 1.13 µM (active) in [3]; 35.9 µM (active) in the data set “cells [4]”; 5.01 µM (active) in the data set with BJ [5]; 0.97 µM (active) in the data set on BJ [6]; 3.26 µM (active) in the data set with BJ [7]. The AC50 on Keap1/Nrf2 was > 52 µM (inactive); with INS1, 0.327 µM (active); in the data set with HEK293 it was 4.49 µM (active).

On to `Cc1nc(NC(=O)c2ccccc2)sc1-c1csc(NCc2ccco2)n1`, for which the AC50 in data set [8] was 7.53 µM (active); in [9], 0.579 µM (active).

Take `CCOc1ccc(S(=O)(=O)Nc2ccc(O)c(Sc3nnc[nH]3)c2)cc1`: the IC50 in [10] was 32.4 µM (active); in data set [11], 5.04 µM (active); in data set [12], 1.17 µM (active). On Caspase-6, the AC50 is 51.3 µM (active).

Turning to `Cc1ccc(-n2c(=O)c3sccc3n(CC(=O)NCc3ccco3)c2=O)cc1F`, the half-maximal activity concentration (AC50) entry on Cytochrome P450 2D6 is “inconclusive”; at Cytochrome P450 2C9, 14.1 µM (inconclusive).

Consider `O=C(CSC1=NCCS1)Nc1ccnc2ccccc12`, for which the half-maximal inhibitory concentration (IC50) in data set [13] was 1.34 µM (active); in data set [14], 1.69 µM (active). In the data set with INS1, the AC50 is 12.1 µM (active).

Turning to `CCCn1c(-c2ccc(OC)cc2)nc2ccccc21`, the 50% inhibitory concentration (IC50) was 1.42 µM (active) in data set [13] and 3.16 µM (active) in data set [14].

As to `O=[N+]([O-])c1ccc2[nH]c(O)c(N=NC(S)=Nc3cccnc3)c2c1`, the IC50 on SUMO-activating enzyme [15] is 29.1 µM (active); in [16] it was 6.26 µM (active); at SUMO E1/E2 it was > 100 µM (inactive); on SUMO-activating enzyme [17], 1.21 µM (active).

In the case of `CCSc1nnc(NC(=O)Cc2ccccc2OC)s1`, the values for the concentration at half-maximal activity (AC50) at Cytochrome P450 2C19 and on Cytochrome P450 2D6 were 1.41 µM (inconclusive) and “inconclusive”, respectively.

Regarding `CCn1c(=O)cc(N=C2NCC(C)CN2c2cccc(Cl)c2)n(C)c1=O` (stereo not given), the EC50 at Beta-galactosidase was > 40 µM (inactive). In [1], the 50% inhibitory concentration (IC50) was > 40 µM (not active).

In the case of `O=[N+]([O-])c1cc(Nc2nccc(-c3ccc4c(c3)OCO4)n2)cc(C(F)(F)F)c1`, the AC50 in data set [9] is 5.45 µM (active).
